In publication PMC7318308, “A Novel Synthetic Dual Agonistic Liposomal TLR4/7 Adjuvant Promotes Broad Immune Responses in an Influenza Vaccine With Minimal Reactogenicity” (Frontiers in Immunology, 2020):
“Also recorded” adds a separate entry of the source. Where two headings read alike, the source gives them in different places.

Assays:
mBMDCs [1] = experiment: CD40 and CD86 expression on BMDCs (flow cytometry); type: cell-based, mouse; conditions: 1 μM, 20 h; compared to 1Z105
Description: Detailed information for reagents used in flow cytometry analysis are shown in Supplementary Table 2. For co-stimulatory molecules on mBMDCs, mBMDCs (10^6 cells/mL) were incubated with 1 μM 1Z105 and 2B182C for 20 h. 0.5% DMSO was uses as vehicle. After removing the supernatant, cells were washed with the stain buffer (BD Biosciences, San Diego, CA) and incubated with anti-mouse CD16/32 antibody for blocking FcR. Cells were then stained with an antibody cocktail with anti-CD40 and anti-CD86 antibodies for 20–30 min at 4°C. For analysis of lymphocytes harvested from draining lymph nodes, two antibody cocktails were prepared; (1) anti-CD3, anti-CD4, anti-PD-1, and anti-CXCR5 antibodies for Tfh cell analysis, (2) anti-CD3, anti-CD19, anti-CD95, anti-CD138, and anti-GL7 antibodies for B cell analysis. After blocking with anti-CD16/CD32 antibody, 2 × 10^6 cells were stained in each antibody cocktail. For Tfh cell analysis, after staining with primary antibodies, cells were washed with PBS, and incubated with streptavidin-PE. Cells were then washed and stained with propidium iodide to determine live/dead cells. Data were acquired using MACSQuant Analyzer 10 (Miltenyi Biotec, Germany) and analyzed using FlowJo (version 10.6.1, Becton Dickinson, Ashland, OR).

mBMDCs [2] = experiment: IL-12 and IL-6 production in mouse BMDCs (ELISA); type: cell-based
Description: (§1) Human PBMC (10^6 cells/mL) were treated with 5 μM 1Z105 and 2B182C overnight and the culture supernatant assessed for human IL-8 by ELISA. Mouse BMDCs (10^6 cells/mL) were incubated with serially diluted compounds (2-fold dilution from 5 μM). 0.5% DMSO was used as vehicle. IL-12 and IL-6 levels in the supernatant were measured by ELISA. ELISA was performed as previously described ([57]). Reagents and dilution factors of antibodies are described in Supplementary Table 1.

mouse TLR4 = target: T1, mouse TLR4 (Mus musculus, UniProt Q9JHF9+Q9QUK6); experiment: TLR4/NF-κB reporter cell assay (SEAP), HEK-Blue mTLR4; type: cell-based; conditions: for EC50: 20 h, 2-fold serial dilutions from 10 μM, NF-κB SEAP, read-out: EC50 on mTLR4 reporter cells; for murine TLR4 agonistic activity (in words): AUC normalized to 2B110 as 100%, Figure 1C
T1 construct: host or cells: HEK-Blue mTLR4 (HEK293-derived NF-κB/SEAP reporter cells)
T1 sequence (Q9QUK6 26-835): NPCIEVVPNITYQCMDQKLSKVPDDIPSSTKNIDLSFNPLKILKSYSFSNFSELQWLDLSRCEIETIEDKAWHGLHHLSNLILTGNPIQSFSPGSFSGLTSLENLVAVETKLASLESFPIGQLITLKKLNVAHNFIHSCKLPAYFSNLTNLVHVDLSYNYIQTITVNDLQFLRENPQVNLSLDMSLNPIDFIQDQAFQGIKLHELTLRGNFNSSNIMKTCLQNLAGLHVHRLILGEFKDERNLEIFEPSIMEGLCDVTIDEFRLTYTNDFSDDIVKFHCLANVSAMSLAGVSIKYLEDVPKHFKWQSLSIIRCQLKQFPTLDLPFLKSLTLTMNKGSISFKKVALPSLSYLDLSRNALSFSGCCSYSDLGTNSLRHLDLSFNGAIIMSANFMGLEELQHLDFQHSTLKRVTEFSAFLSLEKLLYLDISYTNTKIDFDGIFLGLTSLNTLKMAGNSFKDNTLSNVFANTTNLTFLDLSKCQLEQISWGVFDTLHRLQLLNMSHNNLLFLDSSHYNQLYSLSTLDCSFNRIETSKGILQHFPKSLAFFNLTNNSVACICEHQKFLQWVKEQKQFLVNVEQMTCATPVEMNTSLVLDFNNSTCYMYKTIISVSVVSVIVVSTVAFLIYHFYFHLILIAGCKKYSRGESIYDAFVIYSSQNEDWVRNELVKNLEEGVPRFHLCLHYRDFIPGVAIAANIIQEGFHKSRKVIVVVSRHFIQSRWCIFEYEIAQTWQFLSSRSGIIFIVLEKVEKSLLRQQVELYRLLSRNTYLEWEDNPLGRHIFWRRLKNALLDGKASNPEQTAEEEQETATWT
T1 sequence (Q9JHF9 19-160): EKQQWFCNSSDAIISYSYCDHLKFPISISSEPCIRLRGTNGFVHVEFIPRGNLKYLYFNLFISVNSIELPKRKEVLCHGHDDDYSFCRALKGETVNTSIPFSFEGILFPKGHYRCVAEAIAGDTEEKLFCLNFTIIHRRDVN
Description: (§2) Figure 1 Structure-activity relationship studies in TLR4 agonistic pyrimidoindoles. (A) Syntheses of C8-alkynyl and C8-alkyl analogs. (B) Syntheses of C8-aryl analogs. (C) Scatter plot of hTLR4 and mTLR4 agonistic activity in TLR4-NF-κB HEK reporter cells (HEK-Blue™ hTLR4 and HEK-Blue™ mTLR4, respectively). NF-κB inducible NF-κB SEAP levels in culture supernatants were measured according to manufacturer's protocol. The TLR4 agonistic potency was evaluated as area under the curve (AUC) calculated for dose response curve using 2-fold serial dilutions from 10 μM, and normalized to the AUC for 2B110 as 100% on both axes. […] The color of each point is based on cell viability in TLR4-NF-κB reporter cells for compounds evaluated at 5 μM concentration. Viability data was normalized to vehicle control (Vehicle OD570−650 = 0.58 ± 0.01). (D) Structures of the lead compounds with differences at C8 substitution highlighted in blue.
(§3) Titration curves of 1Z105 and derivatives were used to assess their potency in stimulating human and mouse TLR4 response using HEK NF-κB reporter cells (HEK-Blue™ hTLR4 and mTLR4, respectively). The areas under the curve for dose response curves relative to vehicle (0.5% DMSO) were normalized to the greatest activity as 100% of 2B110 for both assays (Figure 1C). The compounds were also tested for in vitro toxicity by MTT assay (Figure 1C, Supplementary Figure 1).
(§4) TLR4/NF-κB activation was assessed using HEK-Blue™ hTLR4 and HEK-Blue™ mTLR4 (InvivoGen). The cells were treated with 1Z105 and 2B182C (2-fold serial dilutions starting from 10 μM) for 20 h. NF-κB inducible secreted embryonic alkaline phosphatase (SEAP) protein in the culture supernatant was measured according to manufacturer's protocol. To evaluate cell viability, 0.5 mg/mL 3-[4,5-dimethylthiazol-2-yl]-2,5-dipheyl tetrazolium bromide (MTT, Thermo Fisher Scientific) solution was added to each well and incubated at 37°C. Six hours later, formazan crystals were lysed with lysis buffer (15% SDS and 0.12% 12 N HCl) and the absorbance was measured at 570 nm using 650 nm as a reference with a plate reader (Tecan, Switzerland).

human TLR4 = target: T2, human TLR4 (Homo sapiens, UniProt O00206+Q9Y6Y9); experiment: TLR4/NF-κB reporter cell assay (SEAP), HEK-Blue hTLR4; type: cell-based; conditions: for human TLR4 agonistic activity (in words): AUC normalized to 2B110 as 100%, Figure 1C
T2 construct: host or cells: HEK-Blue hTLR4 (HEK293-derived NF-κB/SEAP reporter cells)
T2 sequence (O00206 24-839): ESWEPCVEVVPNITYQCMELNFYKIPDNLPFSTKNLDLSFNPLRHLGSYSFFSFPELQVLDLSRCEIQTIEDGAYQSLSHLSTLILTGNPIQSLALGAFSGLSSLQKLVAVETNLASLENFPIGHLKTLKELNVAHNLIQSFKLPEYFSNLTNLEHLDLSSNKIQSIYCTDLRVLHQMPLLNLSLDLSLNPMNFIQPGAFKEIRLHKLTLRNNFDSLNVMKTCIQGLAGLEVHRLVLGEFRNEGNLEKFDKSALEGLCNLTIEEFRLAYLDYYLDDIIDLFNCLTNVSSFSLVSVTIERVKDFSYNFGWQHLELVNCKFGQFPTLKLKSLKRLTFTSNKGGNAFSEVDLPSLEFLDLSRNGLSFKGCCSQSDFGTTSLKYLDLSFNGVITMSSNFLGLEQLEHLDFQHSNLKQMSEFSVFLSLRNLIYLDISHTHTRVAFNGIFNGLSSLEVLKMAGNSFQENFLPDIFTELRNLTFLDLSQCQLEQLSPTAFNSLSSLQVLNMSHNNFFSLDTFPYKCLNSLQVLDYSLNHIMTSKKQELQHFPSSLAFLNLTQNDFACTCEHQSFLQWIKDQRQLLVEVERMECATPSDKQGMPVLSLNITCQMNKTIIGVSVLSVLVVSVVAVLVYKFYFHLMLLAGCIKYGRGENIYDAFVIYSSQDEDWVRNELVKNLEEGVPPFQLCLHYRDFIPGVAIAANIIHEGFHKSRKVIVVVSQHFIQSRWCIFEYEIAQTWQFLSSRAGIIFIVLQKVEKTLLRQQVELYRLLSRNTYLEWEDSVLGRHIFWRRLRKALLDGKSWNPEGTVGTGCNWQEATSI
T2 sequence (Q9Y6Y9 17-160 limits assumed): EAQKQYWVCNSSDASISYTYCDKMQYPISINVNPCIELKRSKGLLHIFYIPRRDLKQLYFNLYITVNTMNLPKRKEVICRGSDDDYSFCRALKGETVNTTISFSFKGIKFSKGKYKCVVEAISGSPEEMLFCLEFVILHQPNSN
Description: as §2, §3, §4

hPBMCs = experiment: IL-8 release from human PBMC (ELISA); type: cell-based; conditions: 5 μM, overnight; compared to 1Z105
Description: as §1

[3] = system: IIAV A/California/04/2009 (H1N1)pdm09 HA and NA; experiment: Prime-boost vaccination model with IIAV, serum anti-HA/anti-NA IgG ELISA; type: in vivo, BALB/c mice; conditions: i.m. IIAV 10 μg + adjuvant days 0 and 21, sera day 28; 1V270 1 nmol, TLR4 ligand 200 nmol/injection
[4] = system: TLR4-NF-κB reporter cells; experiment: MTT cell viability in TLR4-NF-κB reporter cells; type: cell-based; conditions: 10 µM, MTT, Supplementary Figure 1
Description: as §2, §4

[5] = system: HEK-Blue mTLR4 reporter cells; experiment: MTT cell viability, murine TLR4 reporter cells; type: cell-based; conditions: dose response, % viability normalized to vehicle (0.5% DMSO)
Description: as §4
(§5) Human TLR4 reporter cells Murine TLR4 reporter cells
(§6) [Compound] 1 μM 10 [Compound] 1 μM 10
(§7) Supplementary Figure 1. Dose response curves for cell viability (toxicity) of lead compounds in human and murine TLR4-NF-κB reporter cells. Cellular toxicity evaluated by MTT assay is presented as % viability normalized to vehicle (0.5% DMSO) as 100%. While 1Z105 had minimal toxicity in both hTLR4 and mTLR4 reporter cells (HEK-BlueTM hTLR4 and HEK-BlueTM mTLR4, […]
(§8) (also on this page, place not known: %Relative (Normalized 100%) 101101 viability vehicle as to)

[6] = system: HEK-Blue hTLR4 reporter cells; experiment: MTT cell viability, human TLR4 reporter cells; type: cell-based; conditions: dose response, % viability normalized to vehicle (0.5% DMSO)
Description: as §4, §5, §6, §7, §8

[7] = Mus musculus, BMDC, read-out: EC50 for IL-6 production in mBMDCs, 2-fold dilution from 5 μM
[8] = Mus musculus, BMDC, read-out: EC50 for IL-12 production in mBMDCs, 2-fold dilution from 5 μM

| SMILES | CD40 expression on mBMDCs (in words) (mBMDCs [1]) | CD86 expression on mBMDCs (in words) (mBMDCs [1]) | EC50 (mBMDCs [2]; [7]) [µM] | EC50 (mBMDCs [2]; [8]) [µM] | EC50 (mBMDCs [2]; read-out: EC50 for IL-6 production in mBMDCs, 2-fold dilution from 5 μM) [µM] | EC50 (mouse TLR4) [µM] | murine TLR4 agonistic activity (in words) (mouse TLR4) | murine TLR4 agonistic activity (in words) (mouse TLR4; listed as 8s) | fold more potent than 1Z105, mTLR4 reporter line (mouse TLR4; ratio of EC50) [fold] | EC50 (human TLR4; 20 h, 2-fold serial dilutions from 10 μM, NF-κB SEAP, read-out: EC50 on hTLR4 reporter cells) [µM] | human TLR4 agonistic activity (in words) (human TLR4) | human TLR4 agonistic activity (in words) (human TLR4; listed as 8s) | fold more potent than 1Z105, hTLR4 reporter cells (human TLR4; ratio of EC50) | IL-8 secretion by hPBMCs (in words) (hPBMCs) | serum anti-HA IgG1 (in words) [3] | serum anti-NA IgG1 (in words) [3] | serum anti-NA IgG2a (in words) [3] | toxicity at 10 µM (in words) [4] | toxicity, mTLR4 reporter cells (in words) [5] | toxicity, hTLR4 reporter cells (in words) [6] |
| --- | --- | --- | --- | --- | --- | --- | --- | --- | --- | --- | --- | --- | --- | --- | --- | --- | --- | --- | --- | --- |
| Cn1c2ccc(-c3ccco3)cc2c2nc(SCC(=O)NC3CCCCC3)n(-c3ccccc3)c(=O)c21 [2B182C] | significantly higher expression levels | significantly higher expression levels | 0.16 | 0.2 | 0.12 | 1.65 | high TLR4 stimulatory potency | potency equivalent to that of compound 2B110 | 4 | 1.66 | high TLR4 stimulatory potency | potency equivalent to that of compound 2B110 | approximately 800 fold | higher level of IL-8 secretion | significantly increased; also recorded: higher serum anti-HA and anti-NA IgG1 levels compared to 1Z105 | significantly increased; also recorded: higher serum anti-HA and anti-NA IgG1 levels compared to 1Z105 | enhanced | exhibited toxicity | – | – |
| Cn1c2ccccc2c2nc(SCC(=O)NC3CCCCC3)n(-c3ccccc3)c(=O)c21 [1Z105, N-cyclohexyl-2-((5-methyl-4-oxo-3-phenyl-4,5-dihydro-3H-pyrimido[5,4-b]indol-2-yl)thio)acetamide] | – | – | 0.63 | 0.77 | – | 7.49 | – | – | – | – | – | – | – | – | – | – | – | – | minimal | minimal |
